According to patent publication US8927717B1, “Thiochromeno[2,3-c]quinolin-12-one derivatives, preparation method and application thereof” (National Defense Medical Center, priority 2014, dated 2015):
Like-named read-outs stand apart in the source and are kept apart here.

What was measured:
DU-145 cell line = test: MTT assay for cell cytotoxicity; assay type: cell-based, human; details: DU-145 cells; 72 h; at least three independent experiments; read-out: MTT assay (IC50 ± SD) DU-145
Protocol: (§1) All of synthesis compounds were evaluated cell cytotoxicity by using MTT colorimetric assay on PC-3 and DU-145 cell lines. DU-145 and PC-3 are human hormone-refractory (androgen-independent) prostatic cancer cell lines from American Type Culture Collection (HTB-81™, ATCC, Rockville, Md.)^125 and Bioresource Collection and Research Center (60122, BCRC, Taiwan)^126, respectively. Two of the “classical” cell lines were cultivated in RPMI-1640 medium supplemented with 5% fetal bovine serum (v/v), 100 U/mL penicillin, and […] streptomycin. Approximately 2×10^3 cells were seeded into each well of a 96-well plate and incubated in 5% CO2 at 37° C. for 24 h. To evaluate the in vitro cytotoxicity, all the synthetic compounds were dissolved in DMSO, prepared immediately before the experiments and diluted into the complete medium before being added to each well of a 96-well plate. Each compound was then added to the culture medium for designated various concentrations (0.15, 0.5, 1.5, 5, 15 μM). After 72 h, an amount of 100 μL of MTT (1 mg/mL) was added to each well, and the samples were incubated at 37° C. for 4 h. After removing the MTT solution, 100 μL of DMSO was added to each well and incubated at 37° C. for another 20 mins. The absorbency at 560 nm was measured by using an ELISA reader.
(§2) Results are expressed as mean values of at least three independent experiments. The IC50 values of testing compounds were described in Table 1.

PC-3 cell line = test: MTT assay for cell cytotoxicity; assay type: cell-based, human; details: PC-3 cells, 72 h, at least three independent experiments, read-out: MTT assay (IC50 ± SD) PC-3
Protocol: as §1, §2

TOP I (Topoisomerase I) [1] = biological target: T1, TOP I (Topoisomerase I) (Homo sapiens, UniProt P11387); test: TOP I mediated supercoiled DNA relaxation assay; assay type: biochemical; details: primary assay at 25 and/or 50 μM
T1 construct: purchased TopoGEN TG2005H
T1 sequence (P11387 1-765): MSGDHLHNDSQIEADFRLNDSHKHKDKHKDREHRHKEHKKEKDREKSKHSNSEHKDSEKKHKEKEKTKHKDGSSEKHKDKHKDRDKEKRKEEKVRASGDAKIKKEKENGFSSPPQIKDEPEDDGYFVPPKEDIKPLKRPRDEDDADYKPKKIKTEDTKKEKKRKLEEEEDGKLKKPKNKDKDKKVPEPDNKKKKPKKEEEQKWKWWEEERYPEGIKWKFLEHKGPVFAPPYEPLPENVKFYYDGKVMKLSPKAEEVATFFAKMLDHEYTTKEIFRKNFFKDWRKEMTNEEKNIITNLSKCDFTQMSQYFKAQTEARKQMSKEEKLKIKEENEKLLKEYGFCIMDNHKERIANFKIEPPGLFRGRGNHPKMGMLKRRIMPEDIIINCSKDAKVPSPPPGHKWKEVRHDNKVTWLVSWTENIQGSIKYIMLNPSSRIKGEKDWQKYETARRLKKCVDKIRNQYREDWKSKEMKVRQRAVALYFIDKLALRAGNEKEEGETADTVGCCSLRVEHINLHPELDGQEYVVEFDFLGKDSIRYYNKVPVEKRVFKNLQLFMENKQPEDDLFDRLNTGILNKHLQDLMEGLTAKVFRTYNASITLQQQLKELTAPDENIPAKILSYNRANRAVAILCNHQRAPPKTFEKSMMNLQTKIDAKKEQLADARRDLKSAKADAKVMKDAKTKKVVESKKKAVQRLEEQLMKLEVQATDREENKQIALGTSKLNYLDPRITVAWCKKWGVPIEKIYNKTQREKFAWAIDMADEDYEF
Protocol: According to the cell cytotoxicity, compounds 5, 7, 8, 16, 19, N2, N7, N8, N9, N14-N19, and N25 were also selected for primary TOP I and II activities assays at 25 and/or 50 μM (FIG. 2-4).

[2] = biological target: T2, TOP II (Topoisomerase II) (Homo sapiens, UniProt P11388); test: TOP II-catalyzed relaxation of plasmid DNA assay; assay type: biochemical; details: for IC50: five different concentrations, TopoGEN TG2005H, TG-2000H-1, read-out: IC50 value, TOP II mediated supercoiled DNA relaxation; for inhibitory effect in TOP II relaxation assay compared with VP-16: primary assay at 25 and/or 50 μM
T2 construct: purchased TopoGEN TG-2000H-1
Protocol: We also performed TOP II-catalyzed relaxation of plasmid DNA assays (FIG. 5-7) to evaluate if compounds could inhibit TOP II. […] The IC50 value of compounds 7, N7, N8, N14, N15, N18, and N19 were about 10, 10, 1, 10, 5, 1, and 1 μM, respectively (detect by TopoGEN TG2005H, TG-2000H-1).

TOP I (Topoisomerase I) [3] = biological target: T1, TOP I (Topoisomerase I); test: TOP I mediated supercoiled DNA relaxation assay; assay type: biochemical; details: five different concentrations; TopoGEN TG2005H, TG-2000H-1

T2 sequence (P11388 whole entry): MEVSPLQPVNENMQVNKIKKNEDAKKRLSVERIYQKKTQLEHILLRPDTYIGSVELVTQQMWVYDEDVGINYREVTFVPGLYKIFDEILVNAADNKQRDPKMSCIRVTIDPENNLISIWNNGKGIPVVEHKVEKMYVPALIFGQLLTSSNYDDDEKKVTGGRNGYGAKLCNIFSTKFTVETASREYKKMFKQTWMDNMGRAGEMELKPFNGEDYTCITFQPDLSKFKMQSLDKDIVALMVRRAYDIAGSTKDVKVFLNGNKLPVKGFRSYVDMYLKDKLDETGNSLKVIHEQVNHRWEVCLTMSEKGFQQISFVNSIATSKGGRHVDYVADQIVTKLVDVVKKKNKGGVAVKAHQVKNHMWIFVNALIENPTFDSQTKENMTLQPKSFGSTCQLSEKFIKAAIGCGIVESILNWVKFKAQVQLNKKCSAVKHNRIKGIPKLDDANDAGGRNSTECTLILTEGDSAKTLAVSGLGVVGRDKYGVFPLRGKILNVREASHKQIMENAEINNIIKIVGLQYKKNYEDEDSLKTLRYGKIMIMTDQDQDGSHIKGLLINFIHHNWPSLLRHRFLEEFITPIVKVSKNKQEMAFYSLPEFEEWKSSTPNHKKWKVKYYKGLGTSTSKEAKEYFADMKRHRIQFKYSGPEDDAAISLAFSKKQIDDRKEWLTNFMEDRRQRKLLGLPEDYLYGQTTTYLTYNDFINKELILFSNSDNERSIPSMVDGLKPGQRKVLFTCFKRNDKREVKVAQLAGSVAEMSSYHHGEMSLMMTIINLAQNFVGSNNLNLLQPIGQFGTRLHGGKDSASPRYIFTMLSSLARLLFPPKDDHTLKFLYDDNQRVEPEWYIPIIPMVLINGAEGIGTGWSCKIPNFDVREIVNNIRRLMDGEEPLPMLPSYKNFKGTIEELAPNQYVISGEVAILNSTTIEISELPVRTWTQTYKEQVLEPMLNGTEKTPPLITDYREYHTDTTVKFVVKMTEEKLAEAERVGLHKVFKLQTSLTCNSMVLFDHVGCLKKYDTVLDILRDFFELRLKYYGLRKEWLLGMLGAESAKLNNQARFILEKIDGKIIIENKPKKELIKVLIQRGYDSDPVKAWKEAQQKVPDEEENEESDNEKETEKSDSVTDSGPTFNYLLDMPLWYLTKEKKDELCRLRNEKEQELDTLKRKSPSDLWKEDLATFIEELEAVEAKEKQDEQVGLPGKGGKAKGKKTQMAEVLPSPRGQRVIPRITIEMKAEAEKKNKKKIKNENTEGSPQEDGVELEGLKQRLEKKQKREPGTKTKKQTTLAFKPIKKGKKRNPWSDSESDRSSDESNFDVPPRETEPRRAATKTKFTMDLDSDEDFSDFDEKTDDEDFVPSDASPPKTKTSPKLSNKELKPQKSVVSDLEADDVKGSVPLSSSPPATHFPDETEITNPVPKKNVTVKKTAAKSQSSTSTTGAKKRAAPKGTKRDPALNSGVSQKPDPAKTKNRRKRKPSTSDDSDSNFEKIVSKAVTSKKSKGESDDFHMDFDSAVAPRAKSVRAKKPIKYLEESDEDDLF

Compound	IC50 (DU-145 cell line)	IC50 (PC-3 cell line)	inhibitory effect in TOP I activity assay compared with CPT (TOP I (Topoisomerase I) [1])	IC50 [2]	inhibitory effect in TOP II relaxation assay compared with VP-16 [2]	melting point	IC50 (TOP I (Topoisomerase I) [3])	IC50 (PC-3 cell line; Homo sapiens)
O=c1c2cc(Cl)ccc2sc2c(NCCCO)nc3ccccc3c12 [Compound N10, 10-Chloro-6-(3-propanolamino)-12H-thiochromeno[2,3-c]quinolin-12-one]	5.94 ± 2.03 µM	6.31 ± 4.11 µM						
O=c1c2cc(Cl)ccc2sc2c(NCCCCCO)nc3ccccc3c12 [Compound N11, 10-Chloro-6-(5-pentanolamino)-12H-thiochromeno[2,3-c]quinolin-12-one]	4.95 ± 0.58 µM	8.38 ± 3.39 µM						
CCN(CC)CCCNc1nc2ccccc2c2c(=O)c3cc(Cl)ccc3sc12 [Compound N18, 10-Chloro-6-((3-(diethylamino)propyl)amino)-12H-thiochromeno[2,3-c]quinolin-12-one]			more potent inhibitory effects than CPT	~1 µM	more potent inhibitory effects than the positive agent VP-16	142 to 143 °C	~25 µM	
O=c1c2cc(Cl)ccc2sc2c(NCCNCCO)nc3ccccc3c12 [Compound N15, 10-Chloro-6-((2-((2-hydroxyethyl)amino)ethyl)amino)-12H-thiochromeno[2,3-c]quinolin-12-one]			more potent inhibitory effects than CPT	~5 µM	more potent inhibitory effects than the positive agent VP-16	141 to 143 °C	~5 µM	
O=c1c2cc(Cl)ccc2sc2c(N3CCNCC3)nc3ccccc3c12 [Compound 7, 10-Chloro-6-(piperazin-1-yl)-12H-thiochromeno[2,3-c]quinolin-12-one]			more potent inhibitory effects than CPT	~10 µM	more potent inhibitory effects than the positive agent VP-16	211 to 213 °C	~10 µM	
COc1cc([C@@H]2c3cc4c(cc3[C@@H](O[C@@H]3O[C@@H]5CO[C@@H](C)O[C@H]5[C@H](O)[C@H]3O)[C@H]3COC(=O)[C@H]23)OCO4)cc(OC)c1O [Etoposide (VP-16), Etoposide, reference compound]								4.33 ± 0.86 µM
Nc1ccc(CCNc2nc3ccccc3c3c(=O)c4cc(Cl)ccc4sc23)cc1 [Compound N32, 6-((4-Aminophenethyl)amino)-10-chloro-12H-thiochromeno[2,3c]quinolin-12-one]	13.6 ± 1.39 µM	10.1 ± 0.94 µM						
